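Dose response: 5 concentrations. Exposure: 48 h. Format: 96-well plates. Endpoint: linear interpolation; highest concentration if not reached. At the GI50, growth is halved.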 Activity calls are given as the source filed them. Cut-off read from the data, not from the text of the source: active = GI50 up to about 1.1 µM and inactive = higher.
Experiments:
Experiment in all cases: NCI tumour cell line growth inhibition, 48 h
[1] = tested on: HOP-92
[2] = tested on: DU-145
[3] = tested on: SR
[4] = tested on: NCI-H226
[5] = tested on: HL-60
[6] = tested on: 786-0
[7] = tested on: CCRF-CEM
[8] = tested on: A498
[9] = tested on: K562
[10] = tested on: HOP-62
[11] = tested on: OVCAR-3
[12] = tested on: MDA-MB-231
[13] = tested on: KM12
[14] = tested on: OVCAR-5
[15] = tested on: M14
[16] = tested on: PC-3
[17] = tested on: SK-OV-3
[18] = tested on: TK-10
[19] = tested on: UACC-62
[20] = tested on: SF-539
[21] = tested on: SF-295
[22] = tested on: BT-549
[23] = tested on: COLO 205
[24] = tested on: OVCAR-8
[25] = tested on: CAKI-1
[26] = tested on: SNB-75
[27] = tested on: U-251
[28] = tested on: SW-620
[29] = tested on: MDA-N
[30] = tested on: SK-MEL-28
[31] = tested on: MDA-MB-435
[32] = tested on: RPMI-8226
[33] = tested on: SNB-19
[34] = tested on: LOX IMVI
[35] = tested on: IGROV-1
[36] = tested on: NCI-H460
[37] = tested on: MCF7
[38] = tested on: UO-31
[39] = tested on: ACHN
[40] = tested on: SN12C
[41] = tested on: A549
[42] = tested on: NCI-H23
[43] = tested on: SK-MEL-2
[44] = tested on: HCT-116
[45] = tested on: EKVX
[46] = tested on: OVCAR-4
[47] = tested on: Malme-3M
[48] = tested on: SK-MEL-5
[49] = tested on: HCT-15
[50] = tested on: UACC-257
[51] = tested on: SF-268
[52] = tested on: RXF 393
[53] = tested on: NCI-H522
[54] = tested on: NCI/ADR-RES
[55] = tested on: HCC 2998
[56] = tested on: T47D
[57] = tested on: HT-29
[58] = tested on: MOLT-4
[59] = tested on: Hs-578T

Measured: GI50

C=CCn1c(-c2ccc(Cl)cc2Cl)cs/c1=N\c1c(C)n(C)n(-c2ccccc2)c1=O
13.7 µM: [49]
inactive: [1] 17.9 µM | [2] 13.2 µM | [3] 5.36 µM | [4] 15.7 µM | [5] 6.11 µM | [6] 13.1 µM | [7] 6.92 µM | [8] 12.4 µM | [9] 2.51 µM | [10] 15.2 µM | [11] 10.7 µM | [12] 13.8 µM | [13] 13.5 µM | [14] 16.4 µM | [15] 11.3 µM | [16] 5.53 µM | [17] 5.04 µM | [18] 12.3 µM | [19] 10.4 µM | [20] 14.8 µM | [21] 6.9 µM | [22] 12.9 µM | [23] 12.3 µM | [24] 5.81 µM | [25] 14.4 µM | [26] 8.47 µM | [27] 12.5 µM | [28] 15.8 µM | [29] 8.55 µM | [30] 13 µM | [31] 10.9 µM | [32] 7.19 µM | [33] 11.1 µM | [34] 9.53 µM | [35] 17 µM | [36] 12.9 µM | [37] 9.14 µM | [38] 11.5 µM | [39] 10 µM | [40] 13.4 µM | [41] 9.44 µM | [42] 9.82 µM | [43] 14.7 µM | [44] 7.24 µM | [45] 3.54 µM | [46] 8.11 µM | [47] 15.9 µM | [48] 3.04 µM | [50] 7.05 µM | [51] 15.7 µM | [52] 14.5 µM | [53] 12.2 µM | [54] 6.71 µM | [55] 15.3 µM | [56] 3.12 µM | [57] 10.1 µM | [58] 4.32 µM | [59] 16.1 µM

CC(C)C(Cl)CCC(C)(Cl)C(=O)CBr (stereo not drawn)
active: [3] 0.845 µM | [5] 0.425 µM | [7] 0.331 µM | [9] 1.02 µM | [32] 0.634 µM | [34] 0.776 µM | [53] 1.06 µM | [58] 0.418 µM
inactive: [1] 10 µM | [2] 17.8 µM | [4] 17.8 µM | [6] 3.96 µM | [8] 15 µM | [10] 8.22 µM | [11] 6.18 µM | [12] 5.37 µM | [13] 14.5 µM | [14] 12.8 µM | [15] 3.43 µM | [16] 8.3 µM | [17] 20 µM | [18] 5.83 µM | [19] 2.77 µM | [20] 16.9 µM | [21] 19.3 µM | [22] 8.55 µM | [23] 3.4 µM | [24] 3.37 µM | [25] 6.1 µM | [26] 16.1 µM | [27] 12.7 µM | [28] 2 µM | [29] 1.95 µM | [30] 5.01 µM | [31] 4.18 µM | [33] 29.6 µM | [35] 6.67 µM | [36] 16.1 µM | [37] 2.37 µM | [38] 5.98 µM | [39] 7.19 µM | [40] 14.5 µM | [41] 20.8 µM | [42] 5.5 µM | [43] 8.32 µM | [44] 3.03 µM | [45] 18.2 µM | [46] 4.6 µM | [47] 9.57 µM | [48] 3.24 µM | [50] 3.79 µM | [51] 20.7 µM | [52] 2.44 µM | [54] 6.81 µM | [55] 18.5 µM | [56] 2.44 µM | [57] 4.36 µM | [59] 5.73 µM
2.99 µM: [49]

— ChEMBL document CHEMBL1201862, “PubChem BioAssay data set” (2004)
